# Test results: patent US11214803B2, “Modulators of YAP1 expression” (Ionis Pharmaceuticals, Inc., priority 2019, dated 2022)
# Strand notation (5' to 3'): a small letter for the sugar, then the base; units joined by * are phosphorothioate-linked, units joined directly phosphodiester-linked; [ ] holds rarer units or linkages, { } end groups; capitals alone tell only the bases. k = constrained ethyl (cEt); [5mC] = 5-methylcytosine; d = 2'-deoxy (DNA)
# System: Yap1 mRNA
# Assay: Dose-dependent inhibition of human Yap1 in A-431 cells (Example 7, 10,000 cells per well, RTS36584)
# Assay type: cell-based
# Details: free uptake
# Method: Modified oligonucleotides described in the studies above were tested at various doses in A-431 cells. Cultured A-431 cells at a density of 10,000 cells per well were treated using free uptake with modified oligonucleotides diluted to concentrations described in the tables below. After approximately 48 hours, Yap1 mRNA levels were measured as previously described using the Human Yap1 primer-probe set RTS36584. Yap1 mRNA levels were normalized to total RNA content, as measured by RIBOGREEN®. Results are presented in the tables below as percent control of the amount of Yap1 mRNA relative to untreated control cells (% UTC). IC50s were calculated using a linear regression on a log/linear plot of the data in excel.
# [1] = Table 60, 15.6 nM, A-431 cells 10,000 cells per well, 48 hours
# [2] = Table 60, 62.5 nM, A-431 cells 10,000 cells per well, 48 hours
# [3] = Table 60, 4000.00 nM, A-431 cells 10,000 cells per well, 48 hours
# [4] = Table 60, A-431 cells 10,000 cells per well
# [5] = 15.6 nM, A-431 cells, 10,000 cells per well, approximately 48 hours
# [6] = 62.5 nM, A-431 cells, 10,000 cells per well, approximately 48 hours
# [7] = 4000.00 nM, A-431 cells, 10,000 cells per well, approximately 48 hours
# [8] = A-431 cells, approximately 48 hours, linear regression on log/linear plot
# [9] = Table 58, 15.6 nM, A-431 cells 10,000 cells per well, 48 hours
# [10] = Table 58, 62.5 nM, A-431 cells 10,000 cells per well, 48 hours
# [11] = Table 58, 4000.00 nM, A-431 cells 10,000 cells per well, 48 hours
# [12] = Table 58, A-431 cells 10,000 cells per well
# [13] = Table 57, 15.6 nM, A-431 cells 10,000 cells per well, 48 hours
# [14] = Table 57, 62.5 nM, A-431 cells 10,000 cells per well, 48 hours
# [15] = Table 57, 4000.00 nM, A-431 cells 10,000 cells per well, 48 hours
# [16] = Table 57, A-431 cells 10,000 cells per well
# [17] = Table 59, 15.6 nM, A-431 cells 10,000 cells per well, 48 hours
# [18] = Table 59, 62.5 nM, A-431 cells 10,000 cells per well, 48 hours
# [19] = Table 59, 4000.00 nM, A-431 cells 10,000 cells per well, 48 hours
# [20] = Table 59, A-431 cells 10,000 cells per well
substance,measurement,setting,value
958578 (k[5mC]*kT*kT*dA*dA*dT*d[5mC]*dT*dG*dT*dG*dG*d[5mC]*kT*kA*k[5mC]; antisense) [compound 958578],"Yap1 mRNA, % UTC",[1],78 % UTC
same,"Yap1 mRNA, % UTC",[2],52 % UTC
same,"Yap1 mRNA, % UTC",[3],10 % UTC
same,IC50,[4],100 nM
958730 (k[5mC]*kT*k[5mC]*dT*dG*dT*d[5mC]*dA*dG*dT*dT*dA*dT*k[5mC]*k[5mC]*kT; antisense) [compound 958730],"Yap1 mRNA, % UTC",[5],88 % UTC
same,"Yap1 mRNA, % UTC",[6],48 % UTC
same,"Yap1 mRNA, % UTC",[7],7 % UTC
same,IC50,[8],100 nM
958752 (kG*kA*kA*dT*dT*dT*dT*dT*dA*dG*dT*d[5mC]*d[5mC]*kA*kG*kT; antisense) [compound 958752],"Yap1 mRNA, % UTC",[9],102 % UTC
same,"Yap1 mRNA, % UTC",[10],66 % UTC
same,"Yap1 mRNA, % UTC",[11],9 % UTC
same,IC50,[12],100 nM
958659 (kG*kT*kT*dG*dT*dA*dT*dT*dA*d[5mC]*dT*d[5mC]*dT*k[5mC]*k[5mC]*kA; antisense) [compound 958659],"Yap1 mRNA, % UTC","Table 61, 15.6 nM, A-431 cells 10,000 cells per well, 48 hours",91 % UTC
same,"Yap1 mRNA, % UTC","Table 61, 62.5 nM, A-431 cells 10,000 cells per well, 48 hours",68 % UTC
same,"Yap1 mRNA, % UTC","Table 61, 4000.00 nM, A-431 cells 10,000 cells per well, 48 hours",9 % UTC
same,IC50,"Table 61, A-431 cells 10,000 cells per well",100 nM
958595 (k[5mC]*k[5mC]*kA*d[5mC]*dA*dT*d[5mC]*dA*dA*dG*dG*d[5mC]*dT*kA*kT*kG; antisense) [compound 958595],"Yap1 mRNA, % UTC",[5],83 % UTC
same,"Yap1 mRNA, % UTC",[6],57 % UTC
same,"Yap1 mRNA, % UTC",[7],16 % UTC
same,IC50,[8],100 nM
958648 (kG*kA*kA*dT*dA*d[5mC]*dT*dG*dA*dG*dT*d[5mC]*dA*kG*kG*kA; antisense) [compound 958648],"Yap1 mRNA, % UTC",[1],80 % UTC
same,"Yap1 mRNA, % UTC",[2],65 % UTC
same,"Yap1 mRNA, % UTC",[3],24 % UTC
same,IC50,[4],200 nM
958551 (k[5mC]*kT*k[5mC]*d[5mC]*dT*dG*dT*dA*dG*dA*d[5mC]*dA*d[5mC]*kA*kT*kA; antisense) [compound 958551],"Yap1 mRNA, % UTC",[13],95 % UTC
same,"Yap1 mRNA, % UTC",[14],73 % UTC
same,"Yap1 mRNA, % UTC",[15],14 % UTC
same,IC50,[16],200 nM
958625 (kT*kG*k[5mC]*dT*dG*dG*dG*dA*dT*dT*dG*dA*dT*kA*kT*kT; antisense) [compound 958625],"Yap1 mRNA, % UTC",[5],86 % UTC
same,"Yap1 mRNA, % UTC",[6],59 % UTC
same,"Yap1 mRNA, % UTC",[7],17 % UTC
same,IC50,[8],100 nM
958753 (kT*kG*kT*dA*dT*dA*dT*dG*d[5mC]*d[5mC]*dG*dT*dT*k[5mC]*k[5mC]*k[5mC]; antisense) [compound 958753],"Yap1 mRNA, % UTC",[1],72 % UTC
same,"Yap1 mRNA, % UTC",[2],48 % UTC
same,"Yap1 mRNA, % UTC",[3],11 % UTC
same,IC50,[4],100 nM
958558 (kT*kT*k[5mC]*dA*d[5mC]*dA*dA*d[5mC]*d[5mC]*dA*dA*d[5mC]*dT*kA*kT*kT; antisense) [compound 958558],"Yap1 mRNA, % UTC",[1],84 % UTC
same,"Yap1 mRNA, % UTC",[2],83 % UTC
same,"Yap1 mRNA, % UTC",[3],35 % UTC
same,IC50,[4],500 nM
958758 (k[5mC]*kT*kA*dT*dT*d[5mC]*dA*dG*dT*dG*dA*dT*d[5mC]*kT*kG*k[5mC]; antisense) [compound 958758],"Yap1 mRNA, % UTC",[17],83 % UTC
same,"Yap1 mRNA, % UTC",[18],66 % UTC
same,"Yap1 mRNA, % UTC",[19],12 % UTC
same,IC50,[20],100 nM
958761 (kA*kG*kT*d[5mC]*dT*d[5mC]*dA*dA*d[5mC]*dA*dA*d[5mC]*d[5mC]*kT*kT*k[5mC]; antisense) [compound 958761],"Yap1 mRNA, % UTC",[13],84 % UTC
same,"Yap1 mRNA, % UTC",[14],73 % UTC
same,"Yap1 mRNA, % UTC",[15],24 % UTC
same,IC50,[16],200 nM
958563 (kA*kG*k[5mC]*dT*dT*dT*dT*dG*d[5mC]*d[5mC]*dA*dG*dG*kA*kG*kA; antisense) [compound 958563],"Yap1 mRNA, % UTC",[17],94 % UTC
same,"Yap1 mRNA, % UTC",[18],54 % UTC
same,"Yap1 mRNA, % UTC",[19],10 % UTC
same,IC50,[20],100 nM
958727 (kA*kT*k[5mC]*dT*dG*dT*d[5mC]*dA*dG*dT*dT*dA*dT*k[5mC]*k[5mC]*kT; antisense) [compound 958727],"Yap1 mRNA, % UTC",[9],90 % UTC
same,"Yap1 mRNA, % UTC",[10],42 % UTC
same,"Yap1 mRNA, % UTC",[11],8 % UTC
same,IC50,[12],100 nM
